{"source": "patent US8178506B2", "about": "“Oligomeric compounds and compositions for use in modulation of small non-coding RNAs” (Regulus Therapeutics Inc., priority 2003, dated 2012)", "key": {"[1]": {"test_system": "preadipocytes / differentiating adipocytes", "assay": "Adipocyte differentiation assay, markers taken together", "type": "cell-based, human", "settings": "for five markers of adipocyte differentiation: differentiating adipocytes, % of UTC (Table 55)", "description": "Oligomeric compounds of the invention are tested for their effects on preadipocyte differentiation. […] For the other adipocyte differentiation markers assayed, an oligomeric compound targeted to PPAR-γ, also known to inhibit adipocyte differentiation, may be used as a positive control.\nCells are transfected as described herein. […] Untreated control cells receive LIPOFECTIN™ only.\nAfter the cells have reach confluence (approximately three days), they are exposed for an additional three days to differentiation medium (Zen-Bio, Inc., Research Triangle Park, N.C.) containing a PPAR-γ agonist, IBMX, dexamethasone, and insulin. Cells are then fed adipocyte medium (Zen-Bio, Inc.), which is replaced at 2 or 3 day intervals.\nFor assaying adipocyte differentiation, expression of the four hallmark genes, HSL, aP2, Glut4, and PPARγ, as well as triglyceride (TG) accumulation and leptin secretion were measured in adipocytes transfected with the uniform 2′-MOE phosphorothioate (PS) oligomeric compounds previously described. Cells are lysed on day nine post-transfection, in a guanadinium-containing buffer and total RNA is harvested. Real-time PCR is performed (Applied Biosystems, Prism 7700) on the total RNA using the following primer/probe sets for the adipocyte differentiation hallmark genes: (aP2): forward 5′-GGTGGTGGAATGCGTCATG-3′ (SEQ ID NO: 746), reverse 5′-[…]-3′ (SEQ ID NO: 747), probe 5′-FAM-[…]-TAMRA-3′ (SEQ ID NO: 748); (Glut4): forward 5′-GGCCTCCGCAGGTTCTG-3′ (SEQ ID NO: 749), reverse 5′-[…]-3′ (SEQ ID NO: 750), probe 5′-FAM-[…]-TAMRA-3′ (SEQ ID NO: 751); (HSL): forward 5′-ACCTGCGCACAATGACACA-3′ (SEQ ID NO: 752), reverse 5′-[…]-3′ (SEQ ID NO: 753), probe 5′-FAM-[…]-TAMRA-3′ (SEQ ID NO: 754); (PPAR-γ): forward 5′-[…]-3′ (SEQ ID NO: 755), reverse 5′-[…]-3′ (SEQ ID NO: 756), probe 5′-FAM-[…]-TAMRA-3′ (SEQ ID NO: 757). The amount of total RNA in each sample is determined using a Ribogreen Assay (Molecular Probes, Eugene, Oreg.), and expression levels of the adipocyte differentiation hallmark genes were normalized to total RNA. Leptin protein and triglyceride levels as well as mRNA levels for each of the four adipocyte differentiation hallmark genes are expressed relative to control levels (control=treatment with ISIS-29848 (SEQ ID NO: 737)).\nIn some embodiments, differentiating adipocytes were treated with uniform 2′-MOE phosphorothioate oligomeric compounds according to the methods described above, and the expression of the four hallmark genes, HSL, aP2, Glut4, and PPARγ, as well as triglyceride (TG) accumulation were measured. […] Undifferentiated adipocytes were also compared as a negative control. […] The effects of TNF-α, also known to inhibit adipocyte differentiation, were also measured."}, "[2]": {"test_system": "HuVECs", "assay": "Endothelial tube formation assay in HuVECs", "settings": "75 nM"}, "[3]": {"test_system": "B16-F10 cells", "assay": "Cell cycle assay in B16-F10 cells", "type": "cell-based, mouse", "settings": "150 nM, 48 hours, relative to untreated control", "description": "(§1) BJ cells were routinely cultured in MEM high glucose with 2 mM L-glutamine and Earle's BSS adjusted to contain 1.5 g/L sodium bicarbonate and supplemented with 10% fetal bovine serum, 0.1 mM non-essential amino acids and 1.0 mM sodium pyruvate (all media and supplements from Invitrogen Life Technologies, Carlsbad, Calif.). B16-F10 cells were routinely cultured in DMEM high glucose (Invitrogen Life Technologies, Carlsbad, Calif.) supplemented with 10% fetal bovine serum (Invitrogen Life Technologies, Carlsbad, Calif.). T47D cells were cultured in DMEM High glucose media (Invitrogen Life Technologies, Carlsbad, Calif.) supplemented with 10% fetal bovine serum. […] Cells were plated on collagen-coated 24-well plates (Falcon-Primaria #3047, BD Biosciences, Bedford, Mass.) at approximately 50,000 cells per well and allowed to attach to wells overnight.\n(§2) In further studies, additional cell lines were treated with oligomeric compounds targeted against miRNAs to assess the effects of each oligomeric compound on cell cycling. BJ, B16, T47D, and HeLa cells were cultured and transfected as described above. […] T47Dp53 cells are T47D cells that have been transfected with and selected for maintenance of a plasmid that expresses a wildtype copy of the p53 gene (for example, pCMV-p53; Clontech, Palo Alto, Calif.), using standard laboratory procedures. BJ cells were treated with 200 nM of each oligomeric compound, and T47D, T47Dp53, HeLa, and B16 cells were treated with 150 nM of each oligomeric compound. The human foreskin fibroblast BJ cell line represents a non-cancer cell line, while HeLa, T47D, T47Dp53 cells and the mouse melanoma cell line B16-F10 represent cancerous cell lines. For comparison, oligomeric compounds ISIS 183891 (SEQ ID NO: 847) and ISIS 285717 ([…]; herein incorporated as SEQ ID NO: 857), both targeting the kinesin-like 1/Eg5 mRNA, involved in cell cycling, were used as positive controls. The random-mer ISIS 29848 was used as a negative control. Additionally, the oligomeric compounds ISIS Number 25690 ([…]; herein incorporated as SEQ ID NO: 858) and ISIS Number 25691 ([…]; herein incorporated as SEQ ID NO: 859), targeted to nucleotides 3051-3070 and 3085-3104, respectively, of the mRNA encoding the Drosha RNase III (GenBank Accession NM_013235.2, incorporated herein as SEQ ID NO: 860) were also tested. ISIS Number 25690 and ISIS Number 25691 are 5-10-52′-MOE gapmer compounds, 20 nucleotides in length, with phosphorothioate internucleoside linkages throughout the oligomeric compound. All cytidine residues are 5-methylcytidines. Transfections were performed using the methods described herein. Cells were prepared for flow cytometry 48-hours after oligonucleotide treatment. Results of these studies are shown in Table 35, where data are expressed as percentage of cells in each phase relative to the untreated control cells in that phase."}, "[4]": {"test_system": "BJ cells", "assay": "Cell cycle assay in BJ cells", "type": "cell-based, human", "settings": "200 nM, 48 hours", "description": "as §1, §2"}, "[5]": {"test_system": "HeLa cells", "assay": "Cell cycle assay in HeLa cells", "type": "cell-based, human", "settings": "for phase of the cell cycle in which cells arrest or delay: HeLa"}, "[6]": {"test_system": "PEPCK-c", "assay": "PEPCK-c mRNA expression in HepG2 cells", "type": "cell-based, human", "settings": "HepG2, 1 nM insulin, 100 nM"}, "[7]": {"test_system": "T47D cells", "assay": "Caspase-3 activity assay (apoptosis) in T47D cells", "settings": "caspase assay, 200 nM; conclusion from Tables 9-12"}, "[8]": {"test_system": "T47Dp53 cells", "assay": "Cell cycle assay in T47Dp53 cells", "type": "cell-based, human", "settings": "150 nM, 48 hours", "description": "as §2"}, "[9]": {"test_system": "BJ, B16-F10, T47D, T47Dp53 and HeLa cells", "assay": "Cell cycle assay (propidium iodide flow cytometry), cell line panel", "type": "cell-based", "settings": "150 nM, 72 hours (Table 29)"}, "[10]": {"settings": "HeLa cells, 150 nM oligomeric compound, 24 hours, relative to untreated control (UTC = 100)"}, "[11]": {"settings": "HeLa cells, 150 nM oligomeric compound, 48 hours after treatment, relative to untreated control (UTC=100)"}, "[12]": {"settings": "HeLa cells, 150 nM, 48 hours, relative to untreated control"}}, "note": "In the oligonucleotide strings, read from the 5' end, every base follows the letter of its sugar. An asterisk marks phosphorothioate; unmarked linkages are phosphodiester. Other units and linkages are bracketed, terminal groups are in braces. A string of capitals states the bases alone. e = 2'-O-(2-methoxyethyl) (MOE); [5mC] = 5-methylcytosine; d = 2'-deoxy (DNA)", "data": [{"substance": "AACCGATTTCAGATGGTGCTAG (anti-miR; chemistry not fully specified) [ISIS 327928]", "values": [{"measurement": "five markers of adipocyte differentiation", "setting": "[1]", "result": "reduce the expression levels of all five markers of adipocyte differentiation"}, {"measurement": "tube formation", "setting": "[2]", "result": "suppressed tube formation"}]}, {"substance": "345395 (AAGGGATTCCTGGGAAAACTGGAC; sugars from the 5' end e5 d10 e9, all phosphorothioate, methylation of C not given here) [compound 345395]", "values": [{"measurement": "% cells in cell cycle phase G1", "setting": "[3]", "result": 106, "unit": "%"}, {"measurement": "% cells in cell cycle phase G2/M", "setting": "[3]", "result": 115, "unit": "%"}, {"measurement": "% cells in cell cycle phase S", "setting": "[3]", "result": 87, "unit": "%"}, {"measurement": "% cells in cell cycle phase aneuploid", "setting": "[3]", "result": 150, "unit": "%"}, {"measurement": "% cells in cell cycle phase subG1", "setting": "[3]", "result": 147, "unit": "%"}, {"measurement": "% cells in cell cycle phase G1", "setting": "[4]; relative to untreated control", "result": 100, "unit": "%"}, {"measurement": "% cells in cell cycle phase G2/M", "setting": "[4]; relative to untreated control", "result": 104, "unit": "%"}, {"measurement": "% cells in cell cycle phase S", "setting": "[4]; relative to untreated control", "result": 97, "unit": "%"}, {"measurement": "% cells in cell cycle phase aneuploid", "setting": "[4]; relative to untreated control", "result": 115, "unit": "%"}, {"measurement": "% cells in cell cycle phase subG1", "setting": "[4]; relative to untreated control", "result": 132, "unit": "%"}, {"measurement": "% cells aneuploid", "setting": "[5]; [10]", "result": 77, "unit": "%"}, {"measurement": "% cells in cell cycle phase G1", "setting": "[5]; [10]", "result": 54, "unit": "%"}, {"measurement": "% cells in cell cycle phase G2/M", "setting": "[5]; [10]", "result": 222, "unit": "%"}, {"measurement": "% cells in cell cycle phase S", "setting": "[5]; [10]", "result": 82, "unit": "%"}, {"measurement": "% cells in cell cycle phase subG1", "setting": "[5]; [10]", "result": 247, "unit": "%"}, {"measurement": "% cells in cell cycle phase: G1", "setting": "[5]; [11]", "result": 51, "unit": "%"}, {"measurement": "% cells in cell cycle phase: G2/M", "setting": "[5]; [11]", "result": 157, "unit": "%"}, {"measurement": "% cells in cell cycle phase: S", "setting": "[5]; [11]", "result": 192, "unit": "%"}, {"measurement": "% cells in cell cycle phase: aneuploid", "setting": "[5]; [11]", "result": 87, "unit": "%"}, {"measurement": "% cells in cell cycle phase: subG1", "setting": "[5]; [11]", "result": 213, "unit": "%"}, {"measurement": "% cells in cell cycle phase G1", "setting": "[5]; [12]", "result": 108, "unit": "%"}, {"measurement": "% cells in cell cycle phase G2/M", "setting": "[5]; [12]", "result": 95, "unit": "%"}, {"measurement": "% cells in cell cycle phase S", "setting": "[5]; [12]", "result": 96, "unit": "%"}, {"measurement": "% cells in cell cycle phase aneuploid", "setting": "[5]; [12]", "result": 139, "unit": "%"}, {"measurement": "% cells in cell cycle phase subG1", "setting": "[5]; [12]", "result": 87, "unit": "%"}]}, {"substance": "AATCTCATTTTCATACTTGCA (anti-miR; chemistry not fully specified) [ISIS 328114, uniform 2′-MOE PS; targets hypothetical miRNA-138]", "values": [{"measurement": "five markers of adipocyte differentiation", "setting": "[1]", "result": "increase in all five markers of adipocyte differentiation"}, {"measurement": "reduction of PEPCK-c mRNA expression", "setting": "[6]", "result": 59, "unit": "%"}]}, {"substance": "ISIS 328400: 5-10-5 2′-MOE gapmer PS; targets mir-196-2 pri-miRNA (eA*eG*eT*eT*e[5mC]*dA*dA*dA*dA*d[5mC]*dT*d[5mC]*dA*dA*dT*e[5mC]*e[5mC]*e[5mC]*eA*eA)", "values": [{"measurement": "five markers of adipocyte differentiation", "setting": "[1]", "result": "reduce the expression levels of all five markers of adipocyte differentiation"}, {"measurement": "apoptosis in T47D cells", "setting": "[7]", "result": "induce apoptosis"}]}, {"substance": "ISIS 328744: SEQ ID NO: 653, targeting mir-182 (e[5mC]*eG*eG*eA*eT*d[5mC]*d[5mC]*dT*dG*dT*dT*dA*d[5mC]*d[5mC]*dT*e[5mC]*eA*e[5mC]*e[5mC]*eA)", "values": [{"measurement": "effect on cell cycling", "setting": "[8]", "result": "not affected"}, {"measurement": "effect on cell cycling", "setting": "[4]", "result": "not affected"}, {"measurement": "phase of the cell cycle in which cells arrest or delay", "setting": "[5]; 150 nM, 48 hours", "result": "increase in the percentage of cells in the G2/M-phase of the cell cycle as well as in the subG1 category"}]}, {"substance": "AAGGGATTCCTGGGAAAACTGGAC (chemistry not given here) [ISIS 327933, uniform 2′-MOE PS; targets mir-145]", "values": [{"measurement": "expression levels of markers of adipocyte differentiation (TG, leptin, aP2, HSL, Glut4, PPARγ)", "setting": "[1]; preadipocytes, 250 nM, day nine post-transfection, relative to ISIS-29848", "result": "increase in all six markers of adipocyte differentiation"}, {"measurement": "percentage of cells in the G2/M phase", "setting": "[9]", "result": "increased percentage of cells in the G2/M phase"}, {"measurement": "phase of the cell cycle in which cells arrest or delay", "setting": "[5]; 150 nM, 24 hours", "result": "G2/M-phase"}, {"measurement": "phase of the cell cycle in which cells arrest or delay", "setting": "[5]; 150 nM, 48 hours", "result": "subG1-phase"}]}]}
